Consider one substance from patent publication US10137171B2, “Methods of treatment using a pentapeptide derived from the C-Terminus of Glucagon-Like Peptide 1 (GLP-1)” (The General Hospital Corporation, priority 2011, dated 2018).

Entries after “also recorded” stand apart in the source; their conditions may differ. Where no end group is shown, it is not given here.

In test [1] the test system is diet-induced obese mice. Description: Plasma circulating glycerol and triglyceride (FIG. 6C). The class given is in vivo, mouse. The settings on record: 16 weeks continuous infusion, 60% fat diet 24 weeks (FIG. 6C). The text has this:
FIG. 6C is a table showing continuous infusion of GLP-1(32-36)amide for 16-weeks improves plasma circulating levels of glycerol and triglyceride in mice fed on a 60% fat diet (VHFD) for 24-weeks. *p<0.02, peptide vs. vehicle; **p<0.008 peptide vs. vehicle.

Test [2] relates to insulin-resistant isolated mouse hepatocytes. In words: Glucose production assay in isolated hepatocytes. The settings on record: stimulated by cAMP/dexamethasone/lactate; basal glucose production not suppressed. The class given is cell-based. The text has this:
FIG. 8 is a bar graph showing suppression of glucose production by the pentapeptide GLP-1(32-36)amide (LVKGRamide (SEQ ID NO:1)) in insulin-resistant hepatocytes. Mice (male, C57bl/6) from 12-19 weeks of age were fasted overnight (16 hrs) and primary hepatocytes were isolated using a collagen and perfusion gradient purification. Cells were first seeded using a Dulbecco's modified Eagle's medium (DMEM) supplemented with 10% FBS, 1 g/L glucose, 2 mmol/1 sodium pyruvate, 1 micromol/L dexamethasone, and 0.1 micromol/L insulin, and later maintained in DMEM with 0.2% BSA, 1 g/L glucose, 0.1 micromol/L dexamethasone, and lnmol/L insulin. […] The readings were then normalized to total protein content determined from whole-cell lysates. […]
Primary hepatocytes (2×10^5 cells per well in twelve-well plates) were pre-treated with GLP-1(32-36)amide for 1 hour followed by the stimulation of insulin resistance by the addition of cAMP (10 microM)/dexamethasone ([…])/sodium lactate (2 mM) in glucose-free DMEM without phenol red. […] The readings were then normalized to total protein content determined from whole-cell lysates.

The test system of test [3] is diet-induced obese mice. Description: Metabolic parameters in closed metabolic chambers (TSE PhenoMaster/LabMaster). Format: in vivo, mouse. The text has this:
FIGS. 4A-C show the results of metabolic measurements of body weights, energy expenditure (VO2), and physical activities of mice during three days of monitoring in TSE-Systems metabolic cages. Mice were 37 weeks old and fed the very high fat diet for 31 weeks at the time of the study. 4A. Line graph showing body weights during three-day monitoring. Vehicle N=2; GLP-1s N=3. # p<0.01; ## p<0.006; ## p<0.008; ## p<0.007. 4B. Bar graph and line graph showing total body oxygen consumption (VO2) measured during both light and dark cycles for the three days of monitoring. Upper panel; Total VO2. Lower panel: Daily time-course of VO2 during light and dark cycles averaged over the three days. Vehicle N=2; GLP-1s N=3. 4C. Bar graph and line graph showing physical activity of the mice during the three days of the metabolic studies. Upper panel: Total activities averaged for light and dark cycles. Lower panel: Time-dependent measurements of activities. Activities were measured for hourly intervals during the light cycle of six hours (13:00 to 18:00) and for two hour intervals during the dark cycle of 12 hours (18:00 to 6:00). […] Vehicle N=2; GLP-1s N=3. The findings support a model of increased basal energy expenditure in mice infused with GLP-1(32-36)amide versus mice infused with control vehicle, independent of endogenous energy expenditure due to physical activity. N=3 mice for pentapeptide infusion and N=2 mice for control vehicle infusion.
FIGS. 4D-G show the results of metabolic measurements of energy expenditure (VO2) of monitoring in TSE-Systems metabolic cages. Mice were 33-34 weeks old and fed the very high fat diet for […] at the time of the study. 4D and 4E. Line graph and bar graph showing total body oxygen consumption (VO2) measured during the light phase during two days. 4F and 4G. Line graph and bar graph showing lean body oxygen consumption (VO2) measured during the light phase during two days.
Mice were single-caged for three days acclimatization and then transferred to single-cage metabolic chambers in a PhenoMaster/LabMaster system (TSE-Systems, Inc., Chesterfield, Mo.) for measurements of oxygen consumption, CO2, physical activity, and food intake during light and dark cycles for a period of 72 hrs.

The next test has as its system H4IIe hepatoma cells. Description: ROS formation assay (H4IIe hepatoma cells). Format: cell-based. The settings on record: 0.2 mM palmitate 24 hr, 100 pM peptide (FIG. 9B). As for the experimental part:
FIG. 9B is a bar graph showing inhibition of the production of ROS in H4IIe hepatoma cells. BSA n=14. palmitate n=13. 32-36/palmitate n=12. *p<0.005 palmitate vs BSA, # p<0.03 palmitate vs GLP-1(32-36)a/palmitate
H4IIe cells were seeded in 12-well plates at a density of 1×10^4/well and incubated overnight in media containing 5.0 mM glucose. Media was then supplemented with 0.20 mM palmitate in BSA, with and without 100 pM GLP-1(32-36)amide and incubated for an additional 24 h. Intracellular ROS was measured by 5-(and 6)-carboxy-2′,7′-dichlorohydro-fluorescein diacetate (CM-H2DCFDA) (Molecular Probes) as follows. Cells were washed twice in HBSS (Hanks' Balance Salt Solution) and incubated with 10 uM CM-H2DCFDA for 45 minutes. The media were removed and cells were lysed. ROS was measured in the cell lysates using a spectrofluorometer (485 nm/535 nm). Data were normalized to values obtained from the cells treated with palmitate. BSA n=14. Palmitate n=13. 32-36/Palmitate n=12.

Turning to “LVKGRamide (LVKGR-NH2) [GLP-1(32-36)amide, pentapeptide derived from the C-terminus of the glucoincretin hormone GLP-1]”, the “plasma circulating levels of glycerol and triglyceride” value with diet-induced obese mice [1] is listed as “improves; also recorded: lowered”. Moreover, the “glucose production (formation)” value in test [2] was “suppression”. Also, in the test on diet-induced obese mice [3] (VHFD 31 weeks, infusion twelve weeks, vehicle 52 (FIG. 4A)), the “body weight during three-day metabolic chamber monitoring” value was found to be 38 grams. The “cumulative food consumption vs vehicle” value in the test with diet-induced obese mice [3] (indirect calorimetric studies) is “lower”. Further, the “physical activity vs vehicle” value in the test on diet-induced obese mice [3] (light and dark cycles (FIG. 4C)) is listed as “not significantly different; also recorded: not associated with changes; also recorded: no significant differences”. Also, in the test with diet-induced obese mice [3] (light cycle and dark cycle (FIG. 4B)), the “whole body oxygen consumption (Total VO2) vs vehicle” value was “significantly higher”. The “resting oxygen consumption vs vehicle” value in the test on diet-induced obese mice [3] (light cycle and dark cycle (FIG. 4D, 4E)) is “increase”. Moreover, the ROS production entry in the test on H4IIe hepatoma cells is recorded as “nearly completely normalizes”; in the test on H4IIe hepatoma cells (listed as GLP-1(32-36)a), “inhibition”.
